Legend:
TET2 [1] = target: T1, TET2 (Pyrococcus horikoshii, UniProt O59196); experiment: MAS NMR 1H-15N peak doubling (G92, D94, H323); assay type: binding; details: active site; 50% (vol/vol) MPD, pH 7.6, ca. 28 °C; slow exchange
T1 construct: gene frvX; full length, 353 residues per subunit, pET41c in E. coli BL21(DE3), no tag mentioned (heat step, Resource Q, Superdex 200), 39 kDa subunit, 468 kDa homododecamer, two Zn per active site

TET2 [2] = target: T2, TET2 (Pyrococcus horikoshii, UniProt O59196, H123F); experiment: MAS NMR 1H-15N chemical-shift perturbation; assay type: binding; details: active site, non-covalent; isotope-labelled protein, ca. 28 °C
T2 construct: gene frvX; full length, 353 residues per subunit, pET41c in E. coli BL21(DE3), no tag mentioned (heat step, Resource Q, Superdex 200), 39 kDa subunit, 468 kDa homododecamer, two Zn per active site
T2 sequence (O59196 whole entry H123F): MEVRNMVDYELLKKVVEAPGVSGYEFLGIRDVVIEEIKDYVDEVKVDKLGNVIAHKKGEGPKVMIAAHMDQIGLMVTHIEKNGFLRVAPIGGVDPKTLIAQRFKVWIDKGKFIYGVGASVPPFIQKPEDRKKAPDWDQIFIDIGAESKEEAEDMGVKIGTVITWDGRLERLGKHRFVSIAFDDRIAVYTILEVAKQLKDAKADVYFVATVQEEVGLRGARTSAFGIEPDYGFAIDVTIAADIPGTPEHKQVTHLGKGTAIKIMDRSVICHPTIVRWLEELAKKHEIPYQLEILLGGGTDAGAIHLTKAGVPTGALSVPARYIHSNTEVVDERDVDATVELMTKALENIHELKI

TET2 [3] = target: T1, TET2; experiment: MAS NMR chemical-shift perturbation; assay type: binding; details: active site, non-covalent; isotope-labelled protein, ca. 28 °C
TET2 [4] = target: T1, TET2; experiment: H-Leu-pNA hydrolysis, absorbance at […] nm; assay type: biochemical; details: 6.4 mM H-Leu-pNA, 1, 5 or 20 mM histidine, pH 7.5, 50 °C
TET2 [5] = target: T3, TET2 (Pyrococcus horikoshii, UniProt O59196, H123Y); experiment: H-Leu-pNA hydrolysis, absorbance at […] nm; assay type: biochemical; details: 6.4 mM H-Leu-pNA, 1, 5 or 20 mM histidine, pH 7.5, 50 °C
T3 construct: gene frvX; full length, 353 residues per subunit, pET41c in E. coli BL21(DE3), no tag mentioned (heat step, Resource Q, Superdex 200), 39 kDa subunit, 468 kDa homododecamer, two Zn per active site
T3 sequence (O59196 whole entry H123Y): as the sequence (O59196 whole entry H123F) above, with F123Y counted along it

T1 sequence (O59196 whole entry): as the sequence (O59196 whole entry H123F) above, with F123H counted along it

CC(O)CC(C)(C)O (centres unmarked) [2-methyl-2,4-pentanediol]
MAS NMR 1H-15N peak doubling (G92, D94, H323) (TET2 [1]): 2-methyl-2,4-pentanediol (MPD), a common crystallization agent used also to obtain solid-state NMR samples, interacts

CC(C)C[C@@H](N)[C@H](O)C(=O)N[C@H](C(=O)N[C@H](C(=O)N[C@@H](CC(=O)O)C(=O)O)C(C)C)C(C)C [amastatin]
MAS NMR 1H-15N chemical-shift perturbation (TET2 [2]): We ensured that amastatin tightly binds to the H123F mutant | MAS NMR chemical-shift perturbation (TET2 [3]): MAS NMR experiments reveal the chemical-shift perturbations induced by this tightly bound inhibitor

N[C@@H](Cc1c[nH]cn1)C(=O)O [histidine]
activity with added free histidine (TET2 [4]): abolishes the function of WT and mutant TET2 | activity with added free histidine (TET2 [5]): addition of free His not only does not increase the activity, but abolishes the function

From publication PMC8993905, “Functional control of a 0.5 MDa TET aminopeptidase by a flexible loop revealed by MAS NMR” (Nature Communications, 2022)
